In PMC9693575, “Isopropyl Amino Acid Esters Ionic Liquids as Vehicles for Non-Steroidal Anti-Inflammatory Drugs in Potential Topical Drug Delivery Systems with Antimicrobial Activity” (International Journal of Molecular Sciences, 2022):
Converted amounts (≈) assume the structure as drawn. Like-named read-outs stand apart in the source and are kept apart here.

Legend:
[1] = n-octanol-water partition coefficient (logP), shake flask method; format: physicochemical
Escherichia coli = test: Disc diffusion antimicrobial susceptibility test, Escherichia coli; format: cell-based; parameters: key to Inhibition diameter: -: no growth of the organism; conditions: for zone of inhibition at 200000 µg/mL / zone of inhibition at 400000 µg/mL / zone of inhibition at 600000 µg/mL: Escherichia coli, 24 h, read-out: Inhibition diameter
Method: (§1) The plates were incubated for 24 h at 37 °C.

[2] = tested on: Staphylococcus epidermidis; test: Disc diffusion antimicrobial susceptibility test, Staphylococcus epidermidis; format: cell-based; parameters: key to Inhibition diameter: -: no growth of the organism
Method: as §1

Micrococcus Luteus = test: Disc diffusion antimicrobial susceptibility test, Micrococcus luteus; format: cell-based; parameters: key to Inhibition diameter: -: no growth of the organism; conditions: for zone of inhibition at 600000 µg/mL: solution transferred to disc 600 mg cm^−3; for zone of inhibition at 800000 µg/mL: solution transferred to disc 800 mg cm^−3
[3] = pKa / pKB by potentiometric acid-base titration and formation constant log(KS)
Method: Determination of formation constant pKs
Zabrze, Poland). For the measurement of pKA acids, 0.1 M NaOH was used. In order to
ester hydrochloride, HCl aqueous solution, was added in an amount that allowed reach-
After that, an acid-base titration was made out by adding dropwise 5 mM

physchem = test: physchem
Description: This study aims to compare the influence of amino acid structure on the physicochemical properties of NSAID salts with the isopropyl ester of amino acids.

[4] = Thermogravimetric analysis (thermal stability); conditions: for TDTGmax, maximum decomposition temperature: DTG
Method: The thermal stabilities of the obtained NSAIDs isopropyl ester amino acid salts were investigated. […] The beginning of thermal degradation was evaluated based on the value of onset of the TG curve, which occurs in the first phase of the process. […]
Thermogravimetric analysis (TG)
Thermogravimetric analysis was carried out using Netzsch Proteus Thermal Analy- […]
Samples of 5–8 mg were loaded in Al2O3 […]
ment was performed in an air atmosphere (25 cm3min−1) with nitrogen flow (10 cm3min−1) […]
Differential scanning calorimetry (DSC)
Phase transformation temperatures were determined on a PerkinElmer DSC-7 (Rot-gau, Germany). The samples of 3–5 mg were loaded on the aluminum pan with a crimped lid. Measurements were carried out in a nitrogen atmosphere (20 cm3 min-1). The rate of heating/cooling was 5°C min-1. […]
tained for 30 min inside the furnace, then cooled to 0°C to condition the sample and the crucible. After that, heating was conducted to the specified temperature, followed by cool-ing. Unless otherwise stated, two complete cycles of heating and cooling were performed.
The specified maximum temperature was individual for each compound, determined from TG analysis, and it was at least 10°C lower than the onset decomposition tempera-ture. Temperatures reported from DSC data are curve peaks, the melting points being endothermic upon heating and crystallization point being exothermic upon cooling. Lead, indium, tin, and zinc were used as standards to calibrate the temperature. Indium was used for enthalpy measurement calibration. […]

[5] = Solubility in organic solvents (modified Vogel's method); conditions: 25 °C
[6] = n-octanol-water, shake flask, read-out: LogP
[7] = solution transferred to disc 25 mg cm^−3
[8] = solution transferred to disc 50 mg cm^−3
[9] = solution transferred to disc 100 mg cm^−3
[10] = solution transferred to disc 200 mg cm^−3
[11] = solution transferred to disc 400 mg cm^−3
[12] = solution transferred to disc 600 mg cm^−3
[13] = solution transferred to disc 1000 mg cm^−3
[14] = Micrococcus luteus, 24 h, solution transferred to disc 400 mg cm^−3, read-out: Inhibition diameter
[15] = Micrococcus luteus, 24 h, read-out: Inhibition diameter
[16] = Staphylococcus epidermidis, 24 h, solution transferred to disc 600 mg cm^−3, read-out: Inhibition diameter
[17] = Staphylococcus epidermidis, 24 h, solution transferred to disc 800 mg cm^−3, read-out: Inhibition diameter

Compound | logP [1, 6] | Inhibition diameter (Escherichia coli; [7]) | Inhibition diameter (Escherichia coli; [8]) | Inhibition diameter (Escherichia coli; [9]) | Inhibition diameter [2, 7] | Inhibition diameter [2, 8] | Inhibition diameter [2, 9] | Inhibition diameter [2, 10] | Inhibition diameter [2, 11] | zone of inhibition at 400000 µg/mL (Micrococcus Luteus; [14]) [mm] | zone of inhibition at 600000 µg/mL (Micrococcus Luteus; [15]) [mm] | zone of inhibition at 800000 µg/mL (Micrococcus Luteus; [15]) [mm] | solubility thermodynamic (physchem; pH 5.4, aqueous buffer) [mg/mL] | solubility thermodynamic (physchem; pH 7.4, aqueous buffer) [mg/mL] | solubility thermodynamic (physchem; water) [mg/mL] | zone of inhibition at 200000 µg/mL (Escherichia coli; [10]) [mm] | zone of inhibition at 400000 µg/mL (Escherichia coli; [11]) [mm] | zone of inhibition at 600000 µg/mL (Escherichia coli; [12]) [mm] | zone of inhibition at 600000 µg/mL [2, 16] [mm] | zone of inhibition at 800000 µg/mL [2, 17] [mm] | other results
CC(C(=O)O)c1cccc(C(=O)c2ccccc2)c1 (racemic) [KETO, (R,S)-ketoprofen, reference compound] | 1.577 ± 0.01 | - | - | - | - | - | - | - | - | 12.5 ± 0.2 | 13.3 ± 0.2 | 14.2 ± 0.1 |  |  |  |  |  |  |  |  | Inhibition diameter (Escherichia coli; [10]): -; Inhibition diameter (Escherichia coli; [11]): -; Inhibition diameter (Escherichia coli; [12]): -; Inhibition diameter (Escherichia coli; [13]): -; Inhibition diameter [2, 12]: -; Inhibition diameter ([2]; solution transferred to disc 800 mg cm^−3): -; Inhibition diameter [2, 13]: -; zone of inhibition at 25000 µg/mL (Micrococcus Luteus; Micrococcus luteus, 24 h, solution transferred to disc 25 mg cm^−3, read-out: Inhibition diameter): 8.3 ± 0.3 mm; zone of inhibition at 50000 µg/mL (Micrococcus Luteus; Micrococcus luteus, 24 h, solution transferred to disc 50 mg cm^−3, read-out: Inhibition diameter): 9.6 ± 0.2 mm; zone of inhibition at 100000 µg/mL (Micrococcus Luteus; Micrococcus luteus, 24 h, solution transferred to disc 100 mg cm^−3, read-out: Inhibition diameter): 10.2 ± 0.2 mm; zone of inhibition at 200000 µg/mL (Micrococcus Luteus; Micrococcus luteus, 24 h, solution transferred to disc 200 mg cm^−3, read-out: Inhibition diameter): 11.1 ± 0.4 mm; pKa [3]: 4.11
O=C(O)c1ccccc1O [SA, salicylic acid, reference compound] |  | - | - | - | - | - | - | - |  | 7.4 ± 0.4 | 8.7 ± 0.8 | 9.4 ± 0.8 | 3.862 ± 0.005 (≈ 28 mM) | 5.757 ± 0.024 (≈ 41.7 mM) | 3.795 ± 0.004 (≈ 27.5 mM) | 6.1 ± 0.1 | 6.4 ± 0.1 | 11 ± 0.8 | 7 ± 0.2 | 8.6 ± 0.3 | logP [1]: 1.32 ± 0.018; Solubility in Water, as active substance (physchem): 3.795 ± 0.004 gAS dm^−3; Solubility in Phosphate Buffer pH = 5.4, as active substance (physchem; pH 5.4): 3.862 ± 0.005 gAS dm^−3; Solubility in Phosphate Buffer pH = 7.4, as active substance (physchem; pH 7.4): 5.757 ± 0.024 gAS dm^−3; concentration from which the inhibitory effect was observed ([2]; S. epidermidis): ≥ 400 mg cm^−3; zone of inhibition at 400000 µg/mL ([2]; Staphylococcus epidermidis, 24 h, solution transferred to disc 400 mg cm^−3, read-out: Inhibition diameter): 6.2 ± 0.1 mm; Inhibition diameter (Micrococcus Luteus; [7]): -; Inhibition diameter (Micrococcus Luteus; [8]): -; Inhibition diameter (Micrococcus Luteus; [9]): -; Inhibition diameter (Micrococcus Luteus; [10]): -; TTGonset, the onset of the thermal degradation [4]: 146.2 °C; TDTGmax, maximum decomposition temperature ([4]; air atmosphere, 10 °C min−1): 198.8 °C
CC[C@H](C)[C@H](N)C(=O)OC(C)C.O=C(O)c1ccccc1O [[L-IleOiPr][SA], L-isoleucine isopropyl ester salicylate] | 1.6 ± 0.034 | - | - | - | - | - | - | - | - |  | 10.8 ± 0.5 | 12.4 ± 0.4 | 19.281 ± 0.015 | 29.55 ± 0.041 | 26.5 ± 0.422 | 6.2 ± 0.1 | 7.3 ± 0.3 | 13.7 ± 0.7 | 7.3 ± 0.4 | 10.5 ± 0.3 | Solubility in Chloroform (39.1) [5]: ○ (soluble >100 mg cm^−3); Solubility in DMSO (45.1) [5]: ○ (soluble >100 mg cm^−3); Solubility in Dichloromethane (40.7) [5]: ○ (soluble >100 mg cm^−3); Solubility in Diethyl Ether (34.5) [5]: ○ (soluble >100 mg cm^−3); Solubility in Ethanol (59.1) [5]: ○ (soluble >100 mg cm^−3); Solubility in Ethyl Acetate (38.1) [5]: ○ (soluble >100 mg cm^−3); Solubility in Hexane (31.0) [5]: ● (insoluble <33 mg cm^−3); Solubility in Toluene (33.9) [5]: ○ (soluble >100 mg cm^−3); Solubility in Water, as active substance (physchem; deionized water, 25 °C, AS = unmodified acid): 11.793 ± 0.422 gAS dm^−3; Solubility in Phosphate Buffer pH = 5.4, as active substance (physchem; pH 5.4, 25 °C, AS = unmodified acid): 8.581 ± 0.015 gAS dm^−3; Solubility in Phosphate Buffer pH = 7.4, as active substance (physchem; pH 7.4, 25 °C, AS = unmodified acid): 13.149 ± 0.041 gAS dm^−3; Inhibition diameter (Micrococcus Luteus; [7]): -; Inhibition diameter (Micrococcus Luteus; [8]): -; Inhibition diameter (Micrococcus Luteus; [9]): -; Inhibition diameter (Micrococcus Luteus; [10]): -; Inhibition diameter (Micrococcus Luteus; [11]): -; Log(KS) formation constant ([3]; calculated from pKA of acid and pKB of base): 7.25; TDTGmax, maximum decomposition temperature ([4]; air atmosphere, 10 °C min−1): 202.4 °C; TTGonset, the onset of the thermal degradation ([4]; TG, air atmosphere, 10 °C min−1): 144.2 °C
